The source of these data is patent US20250282768A1 (Janssen Pharmaceutica NV, priority 2022, published 2025).

The subject of this experiment is p-IKKa levels in L363 (NIK translocated multiple myeloma) cells. The experiment is described as follows: Assay 2: Effect of compounds on p-IKKa levels in L363 (NIK translocated multiple myeloma) cells. Format: cell-based. Particulars: Homo sapiens, L-363, 6 h, read-out: Assay 2 IC50 (nM), p-IKKa (Ser 176/180) in BAFF stimulated L363 cells with MG132, 6 h; average if tested more than once. The method, then:
Assay 2: Effect of Compounds on p-IKKa Levels in L363 (NIK Translocated Multiple Myeloma) Cells
All compounds tested were dissolved and serially diluted in DMSO, 1:3 dilution for 11 points in an Echo compatible plate. 100% DMSO was added to columns 12 and 24 of the plate to serve as high and low signal controls. This compound plate was used to spot 20 nL of compound or DMSO into a Greiner 384 well TC plate (781080). The final DMSO concentration was 0.3% (v/v) in cell assays. Human L363 cells (ATCC) were cultured in RPM11640 medium supplemented with GlutaMax, non-essential amino acids, sodium pyruvate and 10% fetal bovine serum. Cells were routinely maintained at densities of 0.2×10^6 cells per ml—2×10^6 cells per mL at 37° C. in a humidified 5% CO2 atmosphere incubator. Cells were passaged twice a week splitting back to obtain the low density. The day before the assay, cells were washed twice in HBSS (Hank's Balanced Salt Solution), resuspended in Dulbecco's Modified Eagle Medium (DMEM)+0.5% IgG and protease free BSA (Jackson Immuno Research Laboratories), +/−250 ng/ml recombinant human B-cell activating factor (BAFF/BLyS/TNFSF13B) and incubated overnight at 37° C. in a humidified 5% CO2 atmosphere (bulk stimulation with or without BAFF). The next day, the cell concentration was adjusted to 1×10^7 cells/ml in DMEM+/−250 ng/ml BAFF +/−10 μM MG132 and plated at 10 μl/well into compound or DMSO spotted 384 well TC plates. Seeded cells were incubated at 37° C. in a humidified 5% CO2 atmosphere for 6 h. After 6 h, the plates were removed from the incubator and cell lysis was achieved by the addition of 2.5 μl 5×lysis buffer containing protease and phosphatase inhibitors, followed by shaking on a plate shaker at room temperature for 15 min. At the end of this incubation, lysed cells were sequentially treated and incubated with acceptor and donor bead mixes according to the manufacturer's protocol for a 1 plate/2-incubation suspension cell assay (AlphaLISA SureFire Ultra p-IKKa (Ser 176/180) Assay Kit (Perkin Elmer). Plates were read using an EnVision Multilabel Plate Reader (Perkin Elmer). Within an experiment, a concentration response curve for each compound was run in duplicate. The signal obtained in the test wells was normalized using high signal (BAFF stimulated cells, DMSO, MG132) and low signal (unstimulated cells, DMSO) controls. To determine the IC50, a sigmoidal curve was fitted to the plot of % inhibition versus Log10 compound concentration.

With `C[C@H](Nc1nccc(-c2cccc(-c3cc([C@]4(O)CCN(C)C4=O)on3)n2)n1)c1cnn(C)c1` (single isomer, unassigned) [Example 70], the IC50 is over 500 nM.

Regarding `CN1CC[C@@](O)(c2cnn(-c3cccc(-c4ccnc(Nc5cnn(C)c5)n4)n3)c2)C1=O` (single isomer, unassigned) [Example 76], the IC50 is over 500 nM.

On to `CN1CC[C@](O)(c2cnn(-c3cccc(-c4ccnc(Nc5cnn(C)c5)n4)n3)c2)C1=O` (single isomer, unassigned) [Example 77], for which the IC50 was in the range of 50 to 500 nM.

In the case of `CN1CC[C@@](O)(c2cnc(-c3cccc(-c4ccnc(Nc5ccn(C)n5)n4)n3)s2)C1=O` (single isomer, unassigned) [Example 78], the IC50 is over 500 nM.

Take `CN1CC[C@](O)(c2cnc(-c3cccc(-c4ccnc(Nc5ccn(C)n5)n4)n3)s2)C1=O` (single isomer, unassigned) [Example 79]: the IC50 was over 500 nM.

Regarding `CN1CC[C@](O)(c2csc(-c3cccc(-c4ccnc(Nc5ccn(C)n5)n4)n3)n2)C1=O` (single isomer, unassigned) [Example 80], the IC50 is over 500 nM.

As for `CN1CC[C@@](O)(c2csc(-c3cccc(-c4ccnc(Nc5ccn(C)n5)n4)n3)n2)C1=O` (single isomer, unassigned) [Example 81], the IC50 is over 500 nM.

For the compound `CN1CC[C@@](O)(c2ncc(-c3cccc(-c4ccnc(Nc5ccn(C)n5)n4)n3)s2)C1=O` (single isomer, unassigned) [Example 82], the IC50 was over 500 nM.

`CN1CC[C@](O)(c2ncc(-c3cccc(-c4ccnc(Nc5ccn(C)n5)n4)n3)s2)C1=O` (single isomer, unassigned) [Example 83]: the IC50 was in the range of 50 to 500 nM.

Take `CN1CC[C@](O)(c2cc(-c3cccc(-c4ccnc(Nc5ccn(C)n5)n4)n3)[nH]n2)C1=O` (single isomer, unassigned) [Example 84]: the IC50 is over 500 nM.

Turning to `CN1CC[C@@](O)(c2cc(-c3cccc(-c4ccnc(Nc5ccn(C)n5)n4)n3)[nH]n2)C1=O` (single isomer, unassigned) [Example 85], the IC50 was in the range of 50 to 500 nM.

Take `CN1CC[C@](O)(c2cn(-c3cccc(-c4ccnc(Nc5ccn(C)n5)n4)n3)cn2)C1=O` (single isomer, unassigned) [Example 87]: the IC50 was over 500 nM.

Take `CN1CC[C@@](O)(c2cc(-c3cccc(-c4ccnc(Nc5cnn(C)c5Cl)n4)n3)n[nH]2)C1=O` (single isomer, unassigned) [Example 104]: the IC50 was over 500 nM.

On to `CN1CC[C@](O)(c2cc(-c3cccc(-c4ccnc(Nc5cnn(C)c5Cl)n4)n3)n[nH]2)C1=O` (single isomer, unassigned) [Example 105], for which the IC50 was in the range of 50 to 500 nM.

As for `CN1CC[C@](O)(c2nccn2-c2cccc(-c3ccnc(Nc4cnn(C)c4Cl)n3)n2)C1=O` (single isomer, unassigned) [Example 106, (*S)-3-(1-(6-(2-((5-Chloro-1-methyl-1H-pyrazol-4-yl)amino)pyrimidin-4-yl)pyridin-2-yl)-1H-imidazol-2-yl)-3-hydroxy-1-methylpyrrolidin-2-one], the IC50 is over 500 nM.

On to `CN1CC[C@@](O)(c2cn(-c3cccc(-c4ccnc(Nc5cnn(C)c5Cl)n4)n3)cn2)C1=O` (single isomer, unassigned) [Example 107], for which the IC50 was over 500 nM.

With `CN1CC[C@](O)(c2cn(-c3cccc(-c4ccnc(Nc5cnn(C)c5Cl)n4)n3)cn2)C1=O` (single isomer, unassigned) [Example 108], the IC50 fell in the range of 50 to 500 nM.

Turning to `C[C@@H]1Cn2nc(Nc3nccc(-c4cccc(-c5cc([C@]6(O)CCN(C)C6=O)on5)n4)n3)cc2CO1` (single isomer, unassigned) [Example 114, (R)-3-Hydroxy-1-methyl-3-(3-(6-(2-(((*R)-6-methyl-6,7-dihydro-4H-pyrazolo[5,1-c][1,4]oxazin-2-yl)amino)pyrimidin-4-yl)pyridin-2-yl)isoxazol-5-yl)pyrrolidin-2-one], the IC50 is under 50 nM.

With `C[C@H]1Cn2nc(Nc3nccc(-c4cccc(-c5cc([C@]6(O)CCN(C)C6=O)on5)n4)n3)cc2CO1` (single isomer, unassigned) [Example 115, (R)-3-Hydroxy-1-methyl-3-(3-(6-(2-(((*S)-6-methyl-6,7-dihydro-4H-pyrazolo[5,1-c][1,4]oxazin-2-yl)amino)pyrimidin-4-yl)pyridin-2-yl)isoxazol-5-yl)pyrrolidin-2-one], the IC50 fell in the range of 50 to 500 nM.

Turning to `CC1OCCn2ncc(Nc3nccc(-c4cccc(-c5cc([C@@]6(O)C(=O)N(C)CC6(F)F)on5)n4)n3)c21` (single isomer, unassigned) [Example 116, (R)-4,4-Difluoro-3-hydroxy-1-methyl-3-(3-(6-(2-(((*R)-4-methyl-6,7-dihydro-4H-pyrazolo[5,1-c][1,4]oxazin-3-yl)amino)pyrimidin-4-yl)pyridin-2-yl)isoxazol-5-yl)pyrrolidin-2-one], the IC50 was 50 to 500 nM.

On to `C[C@@H](Nc1nccc(-c2cccc(-n3cc([C@]4(O)CCN(C)C4=O)nn3)n2)n1)c1cnn(C)c1` (single isomer, unassigned) [Example 118], for which the IC50 is over 500 nM.

In the case of `C[C@H](Nc1nccc(-c2cccc(-n3cc([C@]4(O)CCN(C)C4=O)nn3)n2)n1)c1cnn(C)c1` (single isomer, unassigned) [Example 119], the IC50 was under 50 nM.

For `CN1CC[C@@](O)(c2cc(-c3cccc(-c4ccnc(Nc5cnn(C)c5C(F)(F)F)n4)n3)no2)C1=O` (single isomer, unassigned) [Example 132, (*R)-3-Hydroxy-1-methyl-3-(3-(6-(2-((1-methyl-5-(trifluoromethyl)-1H-pyrazol-4-yl)amino)pyrimidin-4-yl)pyridin-2-yl)isoxazol-5-yl)pyrrolidin-2-one], the IC50 is under 50 nM.

As to `CN1CC[C@@](O)(c2cc(-c3cccc(-c4ccnc(Nc5cnn([C@H]6CCN(C7COC7)C6)c5)n4)n3)no2)C1=O` (single isomer, unassigned) [Example 140], the IC50 is under 50 nM.

As for `CN1CC[C@@](O)(c2cc(-c3cccc(-c4ccnc(Nc5cnn([C@@H]6CCN(C7COC7)C6)c5)n4)n3)no2)C1=O` (single isomer, unassigned) [Example 141], the IC50 was under 50 nM.

With `C[C@@H](Nc1nccc(-c2cccc(-n3cc([C@]4(O)CCN(C)C4=O)nn3)n2)n1)c1ncccn1` (single isomer, unassigned) [Example 142], the IC50 is 50 to 500 nM.

As for `C[C@H](Nc1nccc(-c2cccc(-n3cc([C@]4(O)CCN(C)C4=O)nn3)n2)n1)c1ncccn1` (single isomer, unassigned) [Example 143], the IC50 was in the range of 50 to 500 nM.

Regarding `C[C@@H](Nc1nccc(-c2cccc(-c3cc([C@]4(O)CCN(C)C4=O)on3)n2)n1)c1cn[nH]c1` (single isomer, unassigned) [Example 148], the IC50 was under 50 nM.

Take `C[C@H](Nc1nccc(-c2cccc(-c3cc([C@]4(O)CCN(C)C4=O)on3)n2)n1)c1cn[nH]c1` (single isomer, unassigned) [Example 149]: the IC50 fell in the range of 50 to 500 nM.

Consider `Cc1noc([C@@H](C)Nc2nccc(-c3cccc(-c4cc([C@]5(O)CCN(C)C5=O)on4)n3)n2)n1` (single isomer, unassigned) [Example 150], for which the IC50 fell in the range of 50 to 500 nM.

`Cc1noc([C@H](C)Nc2nccc(-c3cccc(-c4cc([C@]5(O)CCN(C)C5=O)on4)n3)n2)n1` (single isomer, unassigned) [Example 151]: the IC50 fell in the range of 50 to 500 nM.

On to `C[C@@H](Nc1nccc(-c2cccc(-c3cc([C@]4(O)CCN(C)C4=O)on3)n2)n1)c1ccncc1` (single isomer, unassigned) [Example 154], for which the IC50 lay in the range of 50 to 500 nM.

As to `C[C@H](Nc1nccc(-c2cccc(-c3cc([C@]4(O)CCN(C)C4=O)on3)n2)n1)c1ccncc1` (single isomer, unassigned) [Example 155], the IC50 was in the range of 50 to 500 nM.

As for `Cc1cccnc1[C@@H](C)Nc1nccc(-c2cccc(-c3cc([C@]4(O)CCN(C)C4=O)on3)n2)n1` (single isomer, unassigned) [Example 156], the IC50 is 50 to 500 nM.

As for `Cc1cccnc1[C@H](C)Nc1nccc(-c2cccc(-c3cc([C@]4(O)CCN(C)C4=O)on3)n2)n1` (single isomer, unassigned) [Example 157], the IC50 was over 500 nM.

`C[C@@H](Nc1nccc(-c2cccc(-c3cc([C@]4(O)CCN(C)C4=O)on3)n2)n1)c1cnc2ccccn12` (single isomer, unassigned) [Example 160]: the IC50 was over 500 nM.
